Measured values: ChEMBL document CHEMBL1201862, “PubChem BioAssay data set” (2004)
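Results reflect a 48-hour exposure of cells in 96-well plates to compound at five concentrations. GI50: concentration for 50% inhibition of growth.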 Activity calls are given as the source filed them. Cut-off read from the data, not from the text of the source: active = GI50 up to about 1.1 µM and inactive = higher.

Legend:
Test in all cases: DTP human tumour cell line panel, 48 h
COLO 205 = test system: COLO 205
SK-MEL-5 = test system: SK-MEL-5
Malme-3M = test system: Malme-3M
UO-31 = test system: UO-31
TK-10 = test system: TK-10
EKVX = test system: EKVX
786-0 = test system: 786-0
SF-295 = test system: SF-295
HL-60 = test system: HL-60
SR = test system: SR
HT-29 = test system: HT-29
A549 = test system: A549
HCT-15 = test system: HCT-15
ACHN = test system: ACHN
NCI-H460 = test system: NCI-H460
DLD-1 = test system: DLD-1
SK-MEL-28 = test system: SK-MEL-28
IGROV-1 = test system: IGROV-1
CAKI-1 = test system: CAKI-1

| SMILES | GI50 (COLO 205) | GI50 (SK-MEL-5) | GI50 (Malme-3M) | GI50 (UO-31) | GI50 (TK-10) | GI50 (EKVX) | GI50 (786-0) | GI50 (SF-295) | GI50 (HL-60) | GI50 (SR) | GI50 (HT-29) | GI50 (A549) | GI50 (HCT-15) | GI50 (ACHN) | GI50 (NCI-H460) | GI50 (DLD-1) | GI50 (SK-MEL-28) | GI50 (IGROV-1) | GI50 (CAKI-1) |
| --- | --- | --- | --- | --- | --- | --- | --- | --- | --- | --- | --- | --- | --- | --- | --- | --- | --- | --- | --- |
| CC1CCC2(OCCO2)[C@]2(C)CC(O)C(=O)C=C12 (stereo partly drawn) | > 100 µM (inactive) | > 100 µM (inactive) | > 100 µM (inactive) | > 100 µM (inactive) | > 100 µM (inactive) | > 100 µM (inactive) | > 100 µM (inactive) | > 100 µM (inactive) | > 100 µM (inactive) | > 100 µM (inactive) | > 100 µM (inactive) | > 100 µM (inactive) | > 100 µM | > 100 µM (inactive) | > 100 µM (inactive) | > 100 µM (inactive) | > 100 µM (inactive) | > 100 µM (inactive) | – |
| CC(=O)OC12CCCCC1C1(CCCC1)NC2=O (stereo not drawn) | – | – | > 100 µM (inactive) | > 100 µM (inactive) | > 100 µM (inactive) | > 100 µM (inactive) | > 100 µM (inactive) | > 100 µM (inactive) | > 100 µM (inactive) | > 100 µM (inactive) | > 100 µM (inactive) | > 100 µM (inactive) | > 100 µM | > 100 µM (inactive) | > 100 µM (inactive) | > 100 µM (inactive) | > 100 µM (inactive) | > 100 µM (inactive) | – |
| O=C(/C(=C/c1ccccc1)c1ccccc1)N1c2ccccc2CC1c1c[nH]c2ccccc12 (stereo not drawn) | 6.27 µM (inactive) | 21.7 µM (inactive) | 28.5 µM (inactive) | 5.11 µM (inactive) | 45.7 µM (inactive) | 25.2 µM (inactive) | > 100 µM (inactive) | 7.62 µM (inactive) | 3.19 µM (inactive) | > 100 µM (inactive) | 76.4 µM (inactive) | 11 µM (inactive) | 7.76 µM | 16.9 µM (inactive) | 7.48 µM (inactive) | 53.2 µM (inactive) | > 100 µM (inactive) | > 100 µM (inactive) | 36.1 µM (inactive) |
| Cc1ccc(NC(=O)C(=O)C2NC(=S)NC2=O)c([N+](=O)[O-])c1 (stereo not drawn) | > 100 µM (inactive) | > 100 µM (inactive) | > 100 µM (inactive) | > 100 µM (inactive) | > 100 µM (inactive) | 57.3 µM (inactive) | > 100 µM (inactive) | > 100 µM (inactive) | > 100 µM (inactive) | > 100 µM (inactive) | > 100 µM (inactive) | > 100 µM (inactive) | > 100 µM | > 100 µM (inactive) | > 100 µM (inactive) | > 100 µM (inactive) | > 100 µM (inactive) | > 100 µM (inactive) | > 100 µM (inactive) |
| Cc1ccc(Nc2nc3c(s2)C(=O)c2ccccc2C3=O)cc1 | 12.3 µM (inactive) | 1.75 µM (inactive) | 1.92 µM (inactive) | 2.03 µM (inactive) | 7.26 µM (inactive) | 5.14 µM (inactive) | 1.88 µM (inactive) | 1.6 µM (inactive) | 0.229 µM (active) | – | 3.18 µM (inactive) | 2.16 µM (inactive) | 1.94 µM | 1.75 µM (inactive) | 1.94 µM (inactive) | 2.07 µM (inactive) | 1.62 µM (inactive) | 1.64 µM (inactive) | 1.63 µM (inactive) |
| CC1(C)OCN(c2ccc(N3CCOCC3)cc2)Cn2c1nc1ccccc12 | > 100 µM (inactive) | – | > 100 µM (inactive) | > 100 µM (inactive) | > 100 µM (inactive) | > 100 µM (inactive) | > 100 µM (inactive) | > 100 µM (inactive) | 26.4 µM (inactive) | 31.2 µM (inactive) | > 100 µM (inactive) | > 100 µM (inactive) | > 100 µM | 64 µM (inactive) | > 100 µM (inactive) | > 100 µM (inactive) | > 100 µM (inactive) | > 100 µM (inactive) | – |
| FC(F)(F)c1nc2ccc3[nH]c4c(-c5ccccc5)nccc4c3c2[nH]1 | > 100 µM (inactive) | > 100 µM (inactive) | > 100 µM (inactive) | > 100 µM (inactive) | > 100 µM (inactive) | > 100 µM (inactive) | > 100 µM (inactive) | > 100 µM (inactive) | 97.5 µM (inactive) | 17.9 µM (inactive) | > 100 µM (inactive) | > 100 µM (inactive) | > 100 µM | > 100 µM (inactive) | > 80 µM (inactive) | > 100 µM (inactive) | > 100 µM (inactive) | > 100 µM (inactive) | > 100 µM (inactive) |
| c1cnc2nc3n(c2c1)CSC3 | > 100 µM (inactive) | > 100 µM (inactive) | > 100 µM (inactive) | > 100 µM (inactive) | > 100 µM (inactive) | > 100 µM (inactive) | > 100 µM (inactive) | > 100 µM (inactive) | > 100 µM (inactive) | – | > 100 µM (inactive) | > 100 µM (inactive) | > 100 µM | > 100 µM (inactive) | > 100 µM (inactive) | > 100 µM (inactive) | > 100 µM (inactive) | > 100 µM (inactive) | > 100 µM (inactive) |
| O=C(O/N=C1/CCCC/C1=C\c1ccccc1)c1ccc(Cl)cc1 | > 100 µM (inactive) | 89.7 µM (inactive) | > 100 µM (inactive) | > 100 µM (inactive) | > 100 µM (inactive) | 42.1 µM (inactive) | > 100 µM (inactive) | 47.4 µM (inactive) | 24.7 µM (inactive) | 56.6 µM (inactive) | > 100 µM (inactive) | > 100 µM (inactive) | > 100 µM | > 100 µM (inactive) | > 100 µM (inactive) | > 100 µM (inactive) | > 100 µM (inactive) | > 100 µM (inactive) | 84.5 µM (inactive) |
| CC1(Cl)C(=O)NC(=O)N([C@H]2C[C@H](O)[C@@H](CO)O2)C1N=[N+]=[N-] (stereo partly drawn) | > 100 µM (inactive) | > 100 µM (inactive) | > 100 µM (inactive) | > 100 µM (inactive) | > 100 µM (inactive) | > 100 µM (inactive) | > 100 µM (inactive) | > 100 µM (inactive) | > 100 µM (inactive) | > 100 µM (inactive) | > 100 µM (inactive) | > 100 µM (inactive) | > 100 µM | > 100 µM (inactive) | > 100 µM (inactive) | > 100 µM (inactive) | > 61.1 µM (inactive) | > 100 µM (inactive) | > 100 µM (inactive) |
| CC(C)[C@@H]1C=C(c2ccccc2)c2ccccc2C1C(C#N)(C#N)C(C)C (stereo partly drawn) | > 100 µM (inactive) | 39.7 µM (inactive) | > 100 µM (inactive) | > 100 µM (inactive) | > 100 µM (inactive) | > 100 µM (inactive) | > 100 µM (inactive) | > 100 µM (inactive) | 31.7 µM (inactive) | 46.3 µM (inactive) | 68.7 µM (inactive) | 79.4 µM (inactive) | > 100 µM | > 100 µM (inactive) | > 100 µM (inactive) | > 100 µM (inactive) | > 100 µM (inactive) | > 100 µM (inactive) | – |
| C/C(CN1C(=O)c2ccccc2C1=O)=N\NS(=O)(=O)c1ccc(Cl)cc1 | > 100 µM (inactive) | > 100 µM (inactive) | > 100 µM (inactive) | > 100 µM (inactive) | > 100 µM (inactive) | > 100 µM (inactive) | > 100 µM (inactive) | > 100 µM (inactive) | > 100 µM (inactive) | > 100 µM (inactive) | > 100 µM (inactive) | > 100 µM (inactive) | > 100 µM | > 100 µM (inactive) | > 100 µM (inactive) | > 100 µM (inactive) | – | > 100 µM (inactive) | > 100 µM (inactive) |
| COc1c(C2=NC(C(C)C)CO2)ccc2ccccc12 (stereo not drawn) | 41.2 µM (inactive) | 14.2 µM (inactive) | 35.8 µM (inactive) | 31.4 µM (inactive) | 88.3 µM (inactive) | 37.1 µM (inactive) | 45.9 µM (inactive) | 26.7 µM (inactive) | 14.6 µM (inactive) | – | 24.3 µM (inactive) | 32.7 µM (inactive) | 5.11 µM | 42.6 µM (inactive) | 9.25 µM (inactive) | 16.1 µM (inactive) | 38.6 µM (inactive) | 71 µM (inactive) | 61.5 µM (inactive) |
| NS(=O)(=O)c1ccc(NC(=O)c2cccc3c(=O)c4ccccc4[nH]c23)cc1 | 37.2 µM (inactive) | 65.5 µM (inactive) | 24.7 µM (inactive) | 18.6 µM (inactive) | 89.1 µM (inactive) | > 100 µM (inactive) | > 100 µM (inactive) | > 100 µM (inactive) | 31.8 µM (inactive) | 22 µM (inactive) | > 100 µM (inactive) | > 100 µM (inactive) | > 100 µM | > 100 µM (inactive) | > 100 µM (inactive) | > 100 µM (inactive) | 54.1 µM (inactive) | 78.5 µM (inactive) | > 100 µM (inactive) |
| Cc1nc2ccccc2c(=O)n1/N=C(\N=N\c1cc(Cl)ccc1Cl)c1cccc(-c2ccco2)c1 | > 100 µM (inactive) | 96.4 µM (inactive) | > 100 µM (inactive) | 37.7 µM (inactive) | > 100 µM (inactive) | > 100 µM (inactive) | > 100 µM (inactive) | > 100 µM (inactive) | > 10 µM (inactive) | – | > 100 µM (inactive) | > 100 µM (inactive) | 74.6 µM | 73.6 µM (inactive) | > 100 µM (inactive) | 87.9 µM (inactive) | > 100 µM (inactive) | 61.4 µM (inactive) | > 100 µM (inactive) |
